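Cultured in 96-well plates, cells were exposed to test compound for 48 hours across five concentrations. GI50 marks 50% less growth.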 Active and inactive are the calls of the source. No stated cut-off is given here; in the data, active = GI50 up to about 1.1 µM and inactive = higher.
Experiments:
Assay in all cases: NCI tumour cell line growth inhibition, 48 h
[1] = test system: SNB-19
[2] = test system: RPMI-8226
[3] = test system: SF-295
[4] = test system: SK-MEL-5
[5] = test system: SK-MEL-2
[6] = test system: SF-539
[7] = test system: IGROV-1
[8] = test system: DU-145
[9] = test system: OVCAR-3
[10] = test system: HOP-62
[11] = test system: OVCAR-4
[12] = test system: NCI/ADR-RES
[13] = test system: HCC 2998
[14] = test system: NCI-H226
[15] = test system: K562
[16] = test system: OVCAR-5
[17] = test system: SNB-75
[18] = test system: Hs-578T
[19] = test system: U-251
[20] = test system: MDA-MB-435

For `c1csc(-c2nnc(C34CC5CC(CC(C5)C3)C4)o2)c1`, the GI50 [1] was 51.6 µM (inactive), the GI50 [2] was 36.2 µM (inactive) and the GI50 [3] was 42.1 µM (inactive). The GI50 [4] was 17.1 µM (inactive), the GI50 [5] was 24.5 µM (inactive) and the GI50 [6] was 19 µM (inactive). For the same compound, the GI50 [7] was 31.9 µM (inactive), the GI50 [8] was 44.2 µM (inactive) and the GI50 [9] was 13.6 µM (inactive). For the same compound, the GI50 [10] was 29.4 µM (inactive), the GI50 [11] was 34.2 µM (inactive) and the GI50 [12] was 21.7 µM (inactive). The GI50 [13] was 35.4 µM (inactive), the GI50 [14] was 29.9 µM (inactive) and the GI50 [15] was 34 µM (inactive). For the same compound, the GI50 [16] was 32.4 µM (inactive), the GI50 [17] was 32.5 µM (inactive) and the GI50 [18] was 31.6 µM (inactive). The GI50 [19] was 39.6 µM (inactive) and the GI50 [20] was 36.5 µM (inactive).

In the case of `Fc1ccc(/N=C/C=C/Nc2ccc(F)cc2)cc1`, the GI50 [1] is reported as 13.3 µM (inactive), the GI50 [2] is reported as 12.4 µM (inactive) and the GI50 [3] is reported as 8.28 µM (inactive). For the same compound, the GI50 [4] was 4.84 µM (inactive), the GI50 [5] was 13.6 µM (inactive) and the GI50 [6] was 14.1 µM (inactive). The GI50 [7] was 12.8 µM (inactive), the GI50 [8] was 13.5 µM (inactive) and the GI50 [9] was 16 µM (inactive). For the same compound, the GI50 [10] was 17.7 µM (inactive), the GI50 [11] was 15.3 µM (inactive) and the GI50 [12] was 11.9 µM (inactive). For the same compound, the GI50 [13] was 3.05 µM (inactive), the GI50 [14] was 19.5 µM (inactive) and the GI50 [15] was 0.278 µM (active). The GI50 [16] was 12.1 µM (inactive), the GI50 [17] was 15 µM (inactive) and the GI50 [18] was 19.9 µM (inactive). For the same compound, the GI50 [19] was 7.41 µM (inactive) and the GI50 [20] was 5.3 µM (inactive).

For `COC(=O)[C@]1(NC(=O)c2ccccc2)C[C@H]1C=O`, the GI50 [1] was > 100 µM (inactive), the GI50 [2] was > 100 µM (inactive) and the GI50 [3] was > 78.5 µM (inactive). The GI50 [4] was > 100 µM (inactive), the GI50 [5] was > 100 µM (inactive) and the GI50 [6] was > 100 µM (inactive). The GI50 [7] was > 100 µM (inactive), the GI50 [8] was > 100 µM (inactive) and the GI50 [9] was > 100 µM (inactive). For the same compound, the GI50 [10] was > 100 µM (inactive), the GI50 [11] was > 100 µM (inactive) and the GI50 [12] was > 58.6 µM (inactive). The GI50 [13] was 57.7 µM (inactive), the GI50 [14] was 46.7 µM (inactive) and the GI50 [15] was > 100 µM (inactive). For the same compound, the GI50 [16] was > 100 µM (inactive), the GI50 [17] was > 42.9 µM (inactive) and the GI50 [18] was > 55.5 µM (inactive). For the same compound, the GI50 [19] was > 100 µM (inactive) and the GI50 [20] was > 100 µM (inactive).

For `CCOC(=O)C(=O)/C(=C\NC(=S)Nc1ccccc1Cl)C(=O)OCC`, the GI50 [1] was > 100 µM (inactive), the GI50 [2] was > 100 µM (inactive) and the GI50 [3] was > 100 µM (inactive). For the same compound, the GI50 [4] was > 100 µM (inactive), the GI50 [5] was > 100 µM (inactive) and the GI50 [6] was > 100 µM (inactive). The GI50 [7] was > 100 µM (inactive), the GI50 [8] was > 100 µM (inactive) and the GI50 [9] was > 100 µM (inactive). The GI50 [10] was > 100 µM (inactive), the GI50 [11] was > 100 µM (inactive) and the GI50 [12] was > 100 µM (inactive). For the same compound, the GI50 [13] was > 100 µM (inactive), the GI50 [14] was > 100 µM (inactive) and the GI50 [15] was > 100 µM (inactive). For the same compound, the GI50 [16] was > 100 µM (inactive), the GI50 [17] was > 100 µM (inactive) and the GI50 [18] was > 100 µM (inactive). The GI50 [19] was > 100 µM (inactive) and the GI50 [20] was > 100 µM (inactive).

In the case of `O=C1[C@H](c2ccccc2)C2c3ccccc3CCN12` (stereo not given in full), the GI50 [1] is reported as > 10 µM (inactive), the GI50 [2] is reported as > 10 µM (inactive) and the GI50 [3] is reported as > 10 µM (inactive). For the same compound, the GI50 [4] was > 10 µM (inactive), the GI50 [5] was > 10 µM (inactive) and the GI50 [6] was > 10 µM (inactive). For the same compound, the GI50 [7] was > 10 µM (inactive), the GI50 [8] was > 10 µM (inactive) and the GI50 [9] was > 10 µM (inactive). The GI50 [10] was > 10 µM (inactive), the GI50 [11] was > 10 µM (inactive) and the GI50 [12] was > 10 µM (inactive). For the same compound, the GI50 [13] was > 10 µM (inactive), the GI50 [14] was > 10 µM (inactive) and the GI50 [15] was > 10 µM (inactive). The GI50 [16] was > 10 µM (inactive), the GI50 [17] was > 100 µM (inactive) and the GI50 [18] was > 10 µM (inactive). The GI50 [19] was > 10 µM (inactive) and the GI50 [20] was > 10 µM (inactive).

For `CCOC(=O)CN1CCNCCN(CC(=O)OCC)CCNCC1`, the GI50 [1] was > 100 µM (inactive), the GI50 [2] was > 100 µM (inactive) and the GI50 [3] was > 100 µM (inactive). The GI50 [4] was > 100 µM (inactive), the GI50 [5] was > 100 µM (inactive) and the GI50 [6] was > 100 µM (inactive). The GI50 [7] was > 100 µM (inactive), the GI50 [8] was > 100 µM (inactive) and the GI50 [9] was > 100 µM (inactive). For the same compound, the GI50 [10] was > 100 µM (inactive), the GI50 [11] was > 100 µM (inactive) and the GI50 [12] was > 100 µM (inactive). The GI50 [13] was > 100 µM (inactive), the GI50 [14] was > 100 µM (inactive) and the GI50 [15] was 80.5 µM (inactive). For the same compound, the GI50 [16] was > 100 µM (inactive), the GI50 [17] was > 100 µM (inactive) and the GI50 [18] was > 100 µM (inactive). For the same compound, the GI50 [19] was > 100 µM (inactive) and the GI50 [20] was > 100 µM (inactive).

With `COC(=O)Cc1ccc2c(cnn2-c2ccccc2)c1OC` the GI50 [1] was > 10 µM (inactive), the GI50 [2] was > 10 µM (inactive) and the GI50 [3] was > 10 µM (inactive). For the same compound, the GI50 [4] was > 10 µM (inactive), the GI50 [5] was > 10 µM (inactive) and the GI50 [6] was > 10 µM (inactive). The GI50 [7] was > 10 µM (inactive), the GI50 [8] was > 10 µM (inactive) and the GI50 [9] was > 10 µM (inactive). The GI50 [10] was > 10 µM (inactive), the GI50 [11] was > 10 µM (inactive) and the GI50 [12] was > 10 µM (inactive). For the same compound, the GI50 [13] was > 10 µM (inactive), the GI50 [14] was > 10 µM (inactive) and the GI50 [15] was > 10 µM (inactive). The GI50 [16] was > 10 µM (inactive), the GI50 [17] was > 10 µM (inactive) and the GI50 [18] was > 10 µM (inactive). For the same compound, the GI50 [19] was > 10 µM (inactive) and the GI50 [20] was > 10 µM (inactive).
